Test [1] has as its target T1, aromatic L-amino acid decarboxylase (AADC) (Sus scrofa, UniProt P80041).
T1 construct: host or cells: LLC-PK1 cells
T1 sequence (P80041 1-486): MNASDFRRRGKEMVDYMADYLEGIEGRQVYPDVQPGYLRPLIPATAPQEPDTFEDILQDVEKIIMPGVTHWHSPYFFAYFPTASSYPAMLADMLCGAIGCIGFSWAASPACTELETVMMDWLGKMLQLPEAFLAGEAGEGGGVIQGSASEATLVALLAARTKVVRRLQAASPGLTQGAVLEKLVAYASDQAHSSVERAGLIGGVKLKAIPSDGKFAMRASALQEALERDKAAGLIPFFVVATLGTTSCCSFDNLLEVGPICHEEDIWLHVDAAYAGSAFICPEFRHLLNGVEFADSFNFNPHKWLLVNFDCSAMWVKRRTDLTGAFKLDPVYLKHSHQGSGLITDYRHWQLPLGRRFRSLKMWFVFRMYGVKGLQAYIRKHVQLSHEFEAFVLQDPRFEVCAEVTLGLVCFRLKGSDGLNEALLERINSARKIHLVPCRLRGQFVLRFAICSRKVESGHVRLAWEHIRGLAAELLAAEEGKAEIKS
Kind of test: Decarboxylation of L-DOPA (AADC activity) in LLC-PK1 cells. In kind it is cell-based, porcine. The conditions noted are these: read-out: inhibition of AADC activity IC50. The method, then:
On the day of the experiment, the growth medium was aspirated and the cells (LLC-PK1) washed with Hanks' medium; thereafter, the cell monolayers were preincubated for 15 min in Hanks' medium at 37° C. […] The incubation medium also contained pyridoxal phosphate (120 μM), tolcapone (1 μM) and pargyline (100 μM). […] After preincubation, cells were incubated for 6 min in Hanks' medium with 250 μM LDOPA. The reaction was terminated by the addition of 250 μl of […] perchloric acid. The acidified samples were stored at 4° C. before injection into the high pressure liquid chromatograph for the assay of dopamine.
(§1) The high pressure liquid chromatograph system consisted of a pump (Gilson model 302; Gilson Medical Electronics, Villiers le Bel, France) connected to a manometric module (Gilson model 802 C) and a stainless-steel 5 μm ODS column (Biophase; Bioanalytical Systems, West Lafayette, Ind.) of 25 cm length; samples were injected by means of an automatic sample injector (Gilson model 231) connected to a Gilson dilutor (model 401). […] The detection was carried out electrochemically with a glassy carbon electrode, an Ag/AgCl reference electrode and an amperometric detector (Gilson model 141); the detector cell was operated at 0.75 V. The current produced was monitored using the Gilson 712 HPLC software.

The next test relates to LLC-PK1 cells. As to the kind of experiment: Apical uptake of L-DOPA in LLC-PK1 cells. In kind it is cell-based, porcine. The method, then: Cell culture LLC-PK1 cells, a porcine-derived proximal renal tubule epithelial cell line which retains several properties of proximal tubular epithelial cells in culture (Hull, R. N., et al., 1976, In Vitro 12; 670-677), were obtained from the American Type Culture Collection (Rockville, Md.). LLC-PK1 cells (ATCC CRL 1392; passages 198-206) and were maintained in a humidified atmosphere of 5% CO2-95% air at 37° C. and grown in Medium 199 (Sigma Chemical Company, St. Louis, Mo., USA) supplemented with 100 U/ml penicillin G, 0.25 μg/ml amphotericin B, 100 μg/ml streptomycin (Sigma), 3% foetal bovine serum (Sigma) and 25 mM N-2-hydroxyethylpiperazine-N'-2-ethanesulfonic acid (HEPES; Sigma). For subculturing, the cells were dissociated with 0.05% trypsin-EDTA, split 1:4 and subcultured in Costar flasks with 75- or 162-cm^2 growth areas (Costar, Badhoevedorp, The Netherlands). […] The cell medium was changed every 2 days, and the cells reached confluence after 3-5 days of incubation. For 24 hours prior to each experiment, the cell medium was free of foetal bovine serum. […] On the day of the experiment, the growth medium was aspirated and the cells washed with Hanks' medium; thereafter, the cell monolayers were preincubated for 15 min in Hanks' medium at 37° C. The Hanks' medium had the following composition (mM): […] Test substances were applied from the apical side only, and were present during the preincubation and incubation periods. During preincubation and incubation, the cells were continuously shaken and maintained at 37° C.

A short description of test [2]: Levels of L-DOPA, dopamine, DOPAC and HVA in rat brain and kidney. In kind it is in vivo. The method, then: as §1, with “Male Wistar rats weighing 170-280 g, kept two per cage under controlled environmental conditions (12 h light/dark cycle and room temperature 24° C.), were used in all experiments. […] The high” for “The high”, “Medical Electronics, […] Bel, France)” for “Medical Electronics, Villiers le Bel, France)”

For test [3], the target named is T2, aromatic L-amino acid decarboxylase (AADC) (Rattus norvegicus, UniProt P14173).
T2 construct: from tissue; host or cells: brain, liver and kidney of male Wistar rats
T2 sequence (P14173 1-480): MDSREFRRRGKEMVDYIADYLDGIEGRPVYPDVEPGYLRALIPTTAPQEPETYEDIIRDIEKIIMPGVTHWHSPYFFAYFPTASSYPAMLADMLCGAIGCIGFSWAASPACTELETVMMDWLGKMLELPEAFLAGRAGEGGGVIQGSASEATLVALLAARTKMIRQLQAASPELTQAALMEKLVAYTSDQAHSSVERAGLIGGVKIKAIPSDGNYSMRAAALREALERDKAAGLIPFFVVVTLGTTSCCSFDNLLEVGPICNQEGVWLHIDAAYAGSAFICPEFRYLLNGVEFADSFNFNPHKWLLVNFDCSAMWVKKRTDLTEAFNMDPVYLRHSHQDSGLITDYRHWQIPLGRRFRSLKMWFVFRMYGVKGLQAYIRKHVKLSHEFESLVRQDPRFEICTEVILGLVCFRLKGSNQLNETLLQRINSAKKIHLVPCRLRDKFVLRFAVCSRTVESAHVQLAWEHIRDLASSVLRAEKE
Kind of test: Assay of AADC in rat tissues (brain, liver, kidney) under Vmax conditions. In kind it is in vivo. The conditions noted are these: 30 mg/kg. Here is the method: Male Wistar rats weighing 170-280 g, kept two per cage under controlled environmental conditions (12 h light/dark cycle and room temperature 24° C.), were used in all experiments.
The reaction was stopped by the addition of 500 μl of 2 M perchloric acid and the preparations kept at 4° C. for 60 min. The samples were then centrifuged (200 g, 2 min. 4° C.) and 500 μl aliquots of the supernatant filtered on Spin-X filter tubes (Costar) were used for the assay of dopamine.
Since high doses of benserazide may result in inhibition of AADC in brain (Da Prada, et al., 1987, Eur.

A short description of test [4]: Levels of L-DOPA in plasma of rats. In kind it is in vivo, rat. The following applies: oral, 30 min before L-DOPA 12 mg/kg plus benserazide 3 mg/kg. The method, then: as §1, with “Male Wistar rats weighing 170-280 g, kept two per cage under controlled environmental conditions (12 h light/dark cycle and room temperature 24° C.), were used in all experiments. […] The high” for “The high”, “Medical Electronics, […] Bel, France)” for “Medical Electronics, Villiers le Bel, France)”

Setting [5] is: brain, L-DOPA 12 mg/kg alone, 60 min.
The mark [6] stands for this setting: brain, R 0.3 mg/kg 30 min before L 12 mg/kg + B 3 mg/kg, 60 min after L + B.
Setting [7] is: brain, R 1.0 mg/kg 30 min before L 12 mg/kg + B 3 mg/kg, 60 min after L + B.
The mark [8] stands for this setting: brain, R 3.0 mg/kg 30 min before L 12 mg/kg + B 3 mg/kg, 60 min after L + B.
Setting [9] is: brain, R 10.0 mg/kg 30 min before L 12 mg/kg + B 3 mg/kg, 60 min after L + B.
[10] abbreviates: brain, R 30.0 mg/kg 30 min before L 12 mg/kg + B 3 mg/kg, 60 min after L + B.
Where [11] appears, read: kidney, R 0.3 mg/kg 30 min before L 12 mg/kg + B 3 mg/kg, 60 min after L + B.
The mark [12] stands for this setting: kidney, R 1.0 mg/kg 30 min before L 12 mg/kg + B 3 mg/kg, 60 min after L + B.
Where [13] appears, read: kidney, R 3.0 mg/kg 30 min before L 12 mg/kg + B 3 mg/kg, 60 min after L + B.
The mark [14] stands for this setting: kidney, R 10.0 mg/kg 30 min before L 12 mg/kg + B 3 mg/kg, 60 min after L + B.
[15] abbreviates: kidney, R 30.0 mg/kg 30 min before L 12 mg/kg + B 3 mg/kg, 60 min after L + B.

For orientation: IC50 means the concentration at which inhibition is half-maximal. What is called Km is the concentration of substrate that gives half-maximal velocity.

Structures are written as SMILES. Where two headings read alike, the source gives them in different places. Marks after values point to notes of the source that are not given here.

For `NC(CO)C(=O)NNCc1ccc(O)c(O)c1O` (centres unmarked) [benserazide], the IC50 in test [1] worked out at 0.07 µM.
With `N[C@@H](Cc1ccc(O)c(O)c1)C(=O)O` [L-DOPA, L-3,4-dihydroxyphenylalanine, reference compound], the “Vmax of L-DOPA apical transporter” value with LLC-PK1 cells (6 min, 1 to 250 μM substrate) was 3069±224 pmol mg protein/6 min. Further, the “intracellular L-DOPA concentration” value in the test on LLC-PK1 cells (6 min incubation, medium concentration 0.5 μM) stood at 4.0 ± 0.4 µM. Moreover, the Km in the test with LLC-PK1 cells (read-out: Km of L-DOPA apical transporter, 6 min, 1 to 250 μM substrate) was found to be 47 ± 8 µM. In test [2] (setting [5]), this compound gave a DA level of 201.0 ± 19.6 ng/g, a DOPAC level of 24.3 ± 2.4 ng/g, an HVA level of 320.6 ± 37.4 ng/g and a L-DOPA level of 9.6 ± 1.0 ng/g. Moreover, in test [2] (kidney, L-DOPA 12 mg/kg alone, 60 min), the DA level came out at 120.8 ± 27.5 ng/g.
Regarding `Oc1ccc(C=Cc2cc(O)cc(O)c2)cc1` [resveratrol], the “kidney AADC activity reduction” value in test [3] (rat kidney) worked out at 38%. In test [3] (rat liver), the “liver AADC activity reduction” value worked out at 48%. In addition, the “effect on plasma levels of L-DOPA” value in test [4] is given as “Increases in plasma levels of L-DOPA”. Further, the DA level in test [2] (setting [6]) was 280.6 ± 36.6 ng/g; in test [2] (setting [8]), 412.5 ± 79.7 ng/g; in test [2] (setting [9]), 531.9 ± 41.6 ng/g; in test [2] (setting [10]), 403.2 ± 99.2 ng/g; in test [2] (setting [11]), 685.4 + 148.4 ng/g; in test [2] (setting [12]), 622.5 + 61.5* ng/g. The results for the DA level in test [2] (setting [13]), in test [2] (setting [14]) and in test [2] (setting [15]) were 615.0 + 60.8* ng/g, 710.3 + 67.2* ng/g and 864.4 + 316.1* ng/g, respectively. The DOPAC level was 192.7 ± 13.8 ng/g in test [2] (setting [6]); 149.9 ± 15.8 ng/g in test [2] (setting [7]); 221.2 ± 33.8 ng/g in test [2] (setting [8]); 316.6 ± 20.9 ng/g in test [2] (setting [9]); 257.8 ± 51.1 ng/g in test [2] (setting [10]); 564.2 + 183.0 ng/g in test [2] (setting [11]). The DOPAC level is on record as 598.3 + 144.5 ng/g in test [2] (setting [12]), 420.4 + 33.3* ng/g in test [2] (setting [13]), 476.3 + 52.8* ng/g in test [2] (setting [14]) and 731.9 + 427.3 ng/g in test [2] (setting [15]). The HVA level in test [2] (setting [6]) stood at 3975.5 ± 462.1 ng/g; in test [2] (setting [7]), 3068.6 ± 234.4 ng/g; in test [2] (setting [8]) it was 3026.5 ± 337.2 ng/g; in test [2] (setting [9]), 2449.5 ± 93.5 ng/g; in test [2] (setting [10]) it was 3324.8 ± 529.4 ng/g; in test [2] (setting [11]), 27169.4 ± 2617.0 ng/g. For the same compound, the HVA level in test [2] (setting [12]) amounted to 26254.3 ± 3677.0 ng/g; in test [2] (setting [13]), 29094.8 ± 3342.3 ng/g; in test [2] (setting [14]) it was 25779.8 ± 3941.7 ng/g; in test [2] (setting [15]) it was 27923.6 ± 10686.2 ng/g. The L-DOPA level in test [2] (setting [6]) was 146.8 ± 14.9 ng/g; in test [2] (setting [7]), 143.5 ± 29.1 ng/g; in test [2] (setting [8]) it was 180.9 ± 26.3 ng/g; in test [2] (setting [9]) it was 208.4 ± 21.8 ng/g; in test [2] (setting [10]) it was 294.0 ± 52.1 ng/g; in test [2] (setting [11]), 857.4 + 103.3* ng/g. Further, the L-DOPA level is listed as 739.3 + 144.7* ng/g in test [2] (setting [12]), 1016.2 + 121.5* ng/g in test [2] (setting [13]), 949.3 + 126.4* ng/g in test [2] (setting [14]) and 1198.6 + 225.1* ng/g in test [2] (setting [15]).
As to `CNC(C)(C)C(=O)O` [MeAIB, N-(methylamino)-isobutyric acid], the “effect on the uptake of L-DOPA” value in the test on LLC-PK1 cells (LLC-PK1 cells) was “failed to affect”.
For `NC1(C(=O)O)CC2CCC1C2` (centres unmarked) [BHC, 2-aminobicyclo(2,2,1)-heptane-2-carboxylic acid], in the test on LLC-PK1 cells (1 mM BHC), the “Vmax for L-DOPA uptake in presence of inhibitor” value was found to be 3783±244 pmol/mg protein/6 min and the “type of inhibitory effect on the accumulation of L-DOPA” value was “competitive type”. For the same compound, the concentration for half-maximal inhibition (IC50) with LLC-PK1 cells (Sus scrofa, LLC-PK1, read-out: inhibition of L-DOPA uptake IC50) came out at 407 µM. Further, the Km with LLC-PK1 cells (read-out: Km for L-DOPA uptake in presence of inhibitor, 1 mM BHC) is 130 ± 19 µM.
